Test results: ChEMBL document CHEMBL3751692, “Synthesis and fluorescent study of 5-phenyl furocoumarin derivatives as vasodilatory agents” (Bioorg Med Chem Lett, 2016)

Assays:
[1] = Vasodilator activity in Sprague-Dawley rat mesentric artery assessed as reduction in of K+-induced contraction relative to control; type: functional; details: Mesenteric artery
[2] = Vasodilator activity in Sprague-Dawley rat mesentric artery assessed as reduction in of K+-induced contraction; type: functional, Mesenteric artery

Row | SMILES | Emax [1] | pEC50 [2]
1 | COC(=O)c1ccccc1-c1c2ccoc2c(OCCN(C)C)c2oc(=O)ccc12 | 102% | 5.27
2 | CC(C)=CCOc1c2occc2cc2ccc(=O)oc12 [PENTOSALEN] | 85.6% | 4.95
3 | COC(=O)c1ccccc1-c1c2ccoc2c(OCCN2CCCCC2)c2oc(=O)ccc12 | 116% | 5.35
4 | COC(=O)c1ccccc1-c1c2ccoc2c(OCCN2CCCC2)c2oc(=O)ccc12 | 102% | 4.71
5 | CCOC(=O)c1ccccc1-c1c2ccoc2c(OCCN2CCCC2)c2oc(=O)ccc12 | 100% | 5.15
6 | CCOC(=O)c1ccccc1-c1c2ccoc2c(OCCN2CCCCC2)c2oc(=O)ccc12 | 113% | 5.38
7 | COc1ccc(CCN(C)CCCC(C#N)(c2ccc(OC)c(OC)c2)C(C)C)cc1OC (stereo not drawn) [VERAPAMIL] | 95.8% | 7.51
8 | COC(=O)c1ccccc1-c1c2ccoc2c(OCCN2CCOCC2)c2oc(=O)ccc12 | 100% | 5.59
9 | CCOC(=O)c1ccccc1-c1c2ccoc2c(OCCN2CCOCC2)c2oc(=O)ccc12 | 113% | 5.81
